Here are results for one compound from patent US11965034B2, “Antifibrotic activity of CD47 blockade in the liver” (The Board of Trustees of the Leland Stanford Junior …, priority 2017, dated 2024).

Experiment [1] has as its system c-Jun-induced migration of bone marrow-derived stromal cells. Description: Transwell migration assay of c-Jun-induced bone marrow-derived stromal cells (in vitro inhibitory screen). As to conditions: bone marrow-derived stromal cells from c-Jun-inducible mice, dox induced. Format: cell-based, mouse. An excerpt:
Functional evaluation of signaling pathways mediating the fibrogenic response. We next wished to assess the functional relevance of the signaling pathway rewiring induced by transcriptional activation of c-Jun. To enable systematic pharmacological interrogation we sought to develop a c-Jun-dependent in vitro assay. We assessed two cell biological parameters in cultured bone marrow-derived stromal cells from c-Jun-inducible mice. First, we assessed cell growth and observed a shortening of the cell doubling time from about […] in control to about 2 days in c-Jun-induced fibroblasts (FIG. 6A). Second, we measured cell migration of bone marrow-derived stromal cells in a transwell migration assay as a functional readout of the c-Jun induction and observed a 100-fold increase in migration at 2 hours and a 1000-fold increase at 24 hours in c-Jun induced cells versus uninduced cells (FIG. 6B).
Given its much greater dynamic range, we then tested a series of small molecule inhibitors in the transwell migration assay. […]
Transwell migration and proliferation assays. For transwell migration assays Costar transwell chambers were used according to the manufacturer's directions and transmigrated adherent cells were fixed and stained and counted by microscopy after periods of 2 hrs and 24 hrs. […]

Experiment [2] relates to c-Jun induced mice (bone marrow and skin fibrosis). Put plainly: Systemic c-Jun induced bone marrow and skin fibrosis in vivo. Details: species or system mouse. As to conditions: systemic c-Jun induction, drug i.p. The text has this:
Blockade of the VEGF and PI3K pathways reverse marrow and skin fibrosis in vivo. Encouraged by these findings, we sought to evaluate the efficacy of blocking the PI3K-AKT pathway in c-Jun mediated fibrosis in vivo. Wortmannin, a potent PI3K inhibitor, was systemically administered to mice for 14 days that were induced to express c-Jun two days prior to drug. […] Any effects on gastroesophageal or bladder were not assessed as the fibrosis in these organs takes longer to develop. Both Rosa26-rtTA control mice were treated with dox and c-Jun-inducible mice were treated with PBS. No fibrosis developed in either control condition in lung or other organs over the same time span. Thus, the PI3K and VEGFR pathways are critical mediators of c-Jun-induced fibrosis in mice and may be also involved in the development of human fibrosing conditions.
Tissue processing. Animals were sacrificed at times indicated based on an APLAC-approved protocol that includes assessment of morbidity by >10% loss of weight, scruffy appearance and lethargy. […] Images were analyzed in Adobe Photoshop (Adobe Systems, San Jose, CA). […] Flow cytometry was performed on a FACS Aria cytometer (BD Biosciences, San Jose, CA), at least 10,000 events were acquired, and data were analyzed using FlowJo software. […]

On to `CCN(CC)CCCCNc1ncc2cc(-c3cc(OC)cc(OC)c3)c(NC(=O)NC(C)(C)C)nc2n1` [PD173074], for which the c-Jun-induced migration entry in experiment [1] was “abolish”. In addition, in experiment [2], the bone marrow fibrosis result is listed as “significantly decreased”; the “skin fibrosis (dermal skin thickening and collagen deposition)” value is on record as “but not skin fibrosis”.
